# Laboratory results: ChEMBL document CHEMBL5303304, “EUbOPEN Chemogenomics Library - IncuCyte” (2023)
# How the values were obtained:
# Assay type in all cases: toxicity, cell-based
# U2OS = assay: Incucyte cell viability with U2OS; settings: human, 10 µM, compound concentration 10 uM
# Fibroblast = assay: Incucyte cell viability with human fibroblast; settings: 10 µM, compound concentration 10 uM
# HEK-293T = assay: Incucyte cell viability with HEK293T; settings: human, 10 µM, compound concentration 10 uM
# Further: unitless GR value; below 1 slowed growth and below 0 cell loss.
Compound,"Growth Rate (U2OS; 0 h, replicate number 1)","Growth Rate (U2OS; 6 h, replicate number 1)","Growth Rate (U2OS; 12 h, replicate number 2)","Growth Rate (U2OS; 18 h, replicate number 2)","Growth Rate (U2OS; 24 h, replicate number 1)","Growth Rate (U2OS; 24 h, replicate number 2)","Growth Rate (Fibroblast; 0 h, replicate number 2)","Growth Rate (Fibroblast; 6 h, replicate number 1)","Growth Rate (Fibroblast; 6 h, replicate number 2)","Growth Rate (Fibroblast; 18 h, replicate number 1)","Growth Rate (Fibroblast; 18 h, replicate number 2)","Growth Rate (Fibroblast; 24 h, replicate number 1)","Growth Rate (HEK-293T; 0 h, replicate number 1)","Growth Rate (U2OS; 12 h, replicate number 1)","Growth Rate (HEK-293T; 0 h, replicate number 2)","Growth Rate (U2OS; 18 h, replicate number 1)","Growth Rate (U2OS; 6 h, replicate number 2)","Growth Rate (Fibroblast; 12 h, replicate number 2)","Growth Rate (Fibroblast; 24 h, replicate number 2)","Growth Rate (HEK-293T; 12 h, replicate number 2)",other results
CN(C1CCc2c(c3ccccc3n2CC(=O)O)C1)S(=O)(=O)c1ccc(F)cc1 (configuration not stated),0.71,0.61,0.9,0.93,0.87,0.92,0.14,0.47,0.23,0.85,0.96,0.96,0.38,,,,,,,,"Growth Rate (U2OS; 0 h, replicate number 2): 0.7; Growth Rate (Fibroblast; 0 h, replicate number 1): -0.98"
CC(C)(O)c1coc(S(=O)(=O)NC(=O)Nc2c3c(cc4c2CCC4)CCC3)c1,0.85,0.92,0.89,0.99,,0.94,0.57,,,,,0.99,-0.08,0.88,0.34,,,,,,
NCc1ccc(OCCCc2sc(-c3ccc4c(c3)/C(=N/Nc3nc5ccccc5s3)CCC4)nc2C(=O)O)cc1,0.77,0.23,0.7,0.72,0.58,0.74,-0.83,0.94,,,,,0.54,0.44,-0.79,0.63,,,,,
Cc1nn(C)c(COc2ccc(N3CCN(S(=O)(=O)N(C)C)CC3)cc2)c1-c1cccc2c(CCCOc3cccc4ccccc34)c(C(=O)O)n(CCN3CCOCC3)c12,0.4,0.3,0.97,0.92,0.86,0.98,,0.53,,0.58,,0.76,0.38,0.85,,0.86,0.93,,,,"Growth Rate (HEK-293T; 6 h, replicate number 1): 0.99; Growth Rate (HEK-293T; 6 h, replicate number 2): 0.84; Growth Rate (HEK-293T; 12 h, replicate number 1): 0.93; Growth Rate (HEK-293T; 18 h, replicate number 1): 0.93"
Cc1csc(S(=O)(=O)N(CC(C)C)c2cc3c(cc2OCc2ccc(C(=O)O)cc2)CCC3)n1,,,0.88,0.83,0.99,0.86,-0.95,0.68,0.06,,,,-0.23,,-0.11,0.99,0.87,0.69,,,
Cc1cc(OCc2nc3ccccc3s2)ccc1NC(=O)Nc1ccc(Cl)c(Cl)c1,,,,0.98,,,-0.81,,,,0.94,,0.1,,-0.01,,,0.94,0.92,0.92,"Growth Rate (Fibroblast; 0 h, replicate number 1): -1"
Cc1nn(-c2nc3ccc(Cl)c(Cl)c3[nH]2)c(O)c1C1OC(=O)c2ccccc21 (configuration not stated),0.81,0.82,,,,,-0.86,0.95,,,,0.83,0.09,,,,,,,,"Growth Rate (Fibroblast; 0 h, replicate number 1): -1"
CCCCCCC(Sc1nc(Cl)cc(NCc2ccc(-c3ccccc3)cc2)n1)C(=O)O (configuration not stated),0.82,,0.97,,0.94,0.96,-0.63,,,,,0.91,0.04,0.89,,,,,,,
N[C@@H](CC(=O)O)Cn1nnc(-c2ccc(Oc3ncc(Cl)cc3F)cc2)n1,,0.62,,,,,,,,,0.74,0.95,0.53,,,,,0.4,0.76,0.58,"Growth Rate (HEK-293T; 6 h, replicate number 1): 0.85; Growth Rate (HEK-293T; 6 h, replicate number 2): 0.12; Growth Rate (HEK-293T; 12 h, replicate number 1): 0.94; Growth Rate (HEK-293T; 18 h, replicate number 2): 0.72; Growth Rate (HEK-293T; 24 h, replicate number 1): 0.95; Growth Rate (HEK-293T; 24 h, replicate number 2): 0.83"
Cc1sc(C(=O)c2cncnc2N[C@@H]2C[C@H](COS(N)(=O)=O)[C@@H](O)C2)cc1[C@@H]1NCCc2ccc(Cl)cc21,,0.59,-0.03,0.17,0.66,0.3,-0.16,0.42,,0.44,,0.47,-0.45,1,-0.97,0.96,-0.29,0.8,,,"Growth Rate (U2OS; 0 h, replicate number 2): 0.29; Growth Rate (Fibroblast; 12 h, replicate number 1): 0.55; Growth Rate (HEK-293T; 18 h, replicate number 1): 0.9; Growth Rate (HEK-293T; 24 h, replicate number 1): 0.74; Growth Rate (HEK-293T; 24 h, replicate number 2): 0.88"
COc1ccc(Br)cc1S(=O)(=O)NC(=O)/C=C/c1cc(Cl)ccc1Cc1ccc2ccccc2c1,,,,0.86,,,-0.66,0.77,-0.77,0.99,0.56,0.91,0.03,,0.17,,,0.22,0.39,,"Growth Rate (Fibroblast; 12 h, replicate number 1): 0.99; Growth Rate (HEK-293T; 18 h, replicate number 2): 0.99; Growth Rate (HEK-293T; 24 h, replicate number 2): 0.94"
CCCCC[C@@](C)(O)/C=C/[C@H]1C(=O)CC(O)C1C/C=C\CCCC(=O)O (some centres not stated),,0.49,,,0.94,1,,,-0.92,,0.57,,-0.27,,0.17,,,0.2,0.71,0.96,"Growth Rate (Fibroblast; 12 h, replicate number 1): 0.71"
CC(C(=O)Nc1cc(C#N)ccc1CCCC(=O)O)c1ccc(F)c2ccccc12 (configuration not stated),0,0.47,,,0.78,,-0.98,,,,,,0.5,0.72,0.28,0.92,,,0.93,,
O=C(O)CCCCCC[C@@H]1C(=O)NC(=O)N1CCC(O)C1CCCCC1 (some centres not stated),0.14,0.54,0.93,0.87,,0.92,0.52,-0.07,,0.69,,0.75,-0.07,,0.52,,0.99,,,,"Growth Rate (Fibroblast; 0 h, replicate number 1): -0.99; Growth Rate (Fibroblast; 12 h, replicate number 1): 0.61"
CC(F)(F)CN1C(=O)c2[nH]nc(-c3cccc4[nH]c(=O)oc34)c2C1c1ccc(Oc2cc(C(F)(F)F)cc(C(F)(F)F)c2)cc1 (configuration not stated),,,,,0.88,,-0.97,0.84,,0.98,,0.96,0.14,,-0.56,,,,,0.76,"Growth Rate (HEK-293T; 18 h, replicate number 1): 0.83; Growth Rate (HEK-293T; 18 h, replicate number 2): 0.68; Growth Rate (HEK-293T; 24 h, replicate number 1): 0.78; Growth Rate (HEK-293T; 24 h, replicate number 2): 0.75"
C1=Cc2ccccc2C(=C2CCN(CCCCc3nn[nH]n3)CC2)c2ccccc21,,0.4,,,0.89,,-0.99,,,,,,0.42,,,,,,,0.94,"Growth Rate (HEK-293T; 6 h, replicate number 1): 0.94; Growth Rate (HEK-293T; 6 h, replicate number 2): 0.78; Growth Rate (HEK-293T; 18 h, replicate number 1): 0.91"
CCCCc1c(-c2ccccc2)nc(N)nc1-c1ccc(OCc2ccccc2)c(F)c1F,,0.5,0.36,0.55,1,0.77,0.8,,,,,,-0.23,,-0.46,,0.27,,,0.89,"Growth Rate (U2OS; 0 h, replicate number 2): -0.86; Growth Rate (HEK-293T; 24 h, replicate number 2): 0.99"
Cc1nsc(Nc2cnc(C(F)(F)F)cn2)c1C(=O)Nc1ccc(O[C@H]2CCCN(CC(F)(F)F)C2)nc1,,0.72,0.59,0.57,0.03,0.52,,-0.21,-0.93,-0.36,-0.45,-0.23,-0.98,0.39,,0.06,0.73,,-0.3,-0.54,"Growth Rate (U2OS; 0 h, replicate number 2): 0.91; Growth Rate (Fibroblast; 0 h, replicate number 1): -1; Growth Rate (Fibroblast; 12 h, replicate number 1): -0.43; Growth Rate (HEK-293T; 6 h, replicate number 1): -0.28; Growth Rate (HEK-293T; 6 h, replicate number 2): -0.6; Growth Rate (HEK-293T; 12 h, replicate number 1): -0.36; Growth Rate (HEK-293T; 18 h, replicate number 1): -0.3; Growth Rate (HEK-293T; 18 h, replicate number 2): -0.41; Growth Rate (HEK-293T; 24 h, replicate number 1): -0.25; Growth Rate (HEK-293T; 24 h, replicate number 2): -0.32"
C[C@H](NC(=O)c1cc(Cl)ccc1Oc1ccc(F)cc1)c1ccc(C(=O)O)cc1,,,0.8,,,0.99,-0.45,0.59,-0.71,0.85,0.92,0.86,-0.19,0.94,0.1,,0.86,0.98,,,
